From patent publication US20260364214A1, “MULTIVALENT FIBROBLAST ACTIVATION PROTEIN LIGANDS FOR TARGETED DELIVERY APPLICATIONS” (Philochem AG, priority 2022, published 2026)

Key:
[1] = Determination of Log D7.4 (1-octanol/PBS); type: physicochemical; details: 1-octanol/PBS pH 7.4; 177Lu-labeled
Protocol: The lipophilicity of ^177Lu-ESV6, ^177Lu-Bi-ESV6, ^177Lu-Tri-ESV6 and ^177Lu-FAP-2286 was determined as follows. 100 μL aliquots of the radioligand (~1 MBq) in PBS buffer were added to PBS buffer (500 μL, pH 7.4) and 1-octanol (600 μL). The two-layer mixture were vigorously shaken for 10 minutes on a vortex mixer and then centrifuged at 700 rpm for 5 min to facilitate the separation. 100 μL aliquots of both layers were measured in a Packard Cobra Gamma Counter and the partition coefficient was determined by dividing cpm (octanol) by cpm (PBS) and indicated as Log D7.4. • Log D7.4 (^177Lu-ESV6): −4.13 • Log D7.4 (^177Lu-Bi-ESV6): −3.75 • Log D7.4 (^177Lu-Tri-ESV6): −3.10 • Log D7.4 (^177Lu-FAP-2286): −3.05

SK-RC-52.hFAP tumors = assay: Quantitative biodistribution in SK-RC-52.hFAP tumor bearing mice; type: in vivo, mouse (female athymic Balb/c AnNRj-Foxn1); details: i.v. 250 nmol/kg, 50 MBq/kg
Outline: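 Female athymic Balb/c nude mice carried subcutaneous SK-RC-52.hFAP tumors (5 million cells, ~300 mm^3). 177Lu-labeled conjugates were given i.v. at 250 nmol/kg, 50 MBq/kg. Tissues gamma-counted at several time points as %ID/g±SD, tumor values corrected for growth rate; tumor-to-organ ratios derived.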

[2] = 6 h post injection, listed as 177Lu-TriESV6-DOTAGA, 360 min

## N#CC1CC(F)(F)CN1C(=O)CNC(=O)c1ccnc2c(NC(=O)CCC(=O)NCCNC(=O)CCOCC(COCCC(=O)NCCNC(=O)CCC(=O)Nc3cccc4c(C(=O)NCC(=O)N5CC(F)(F)CC5C#N)ccnc34)(COCCC(=O)NCCNC(=O)CCC(=O)Nc3cccc4c(C(=O)NCC(=O)N5CC(F)(F)CC5C#N)ccnc34)NC(=O)CCC(C(=O)O)N3CCN(CC(=O)[O-])CCN(CC(=O)[O-])CCN(CC(=O)[O-])CC3)cccc12.[177Lu+3] (stereo not shown) [^177Lu-Tri-ESV6-DOTAGA]
[1]
  Log D7.4: −3.10
SK-RC-52.hFAP tumors; 6 h
  Tumor to organs ratio, Blood: 260.4
  Tumor to organs ratio, Heart: 215.4
  Tumor to organs ratio, Intestine: 188.9
  Tumor to organs ratio, Kidney: 22.9
  Tumor to organs ratio, Liver: 76.3
  Tumor to organs ratio, Lung: 128.8
  Tumor to organs ratio, Muscle: 187.0
  Tumor to organs ratio, Spleen: 196.0
  Tumor to organs ratio, Tail: 48.4
SK-RC-52.hFAP tumors; 6 h post injection
  Injected dose per gram, Blood: 0.25 % ID/g
  Injected dose per gram, Heart: 0.23 % ID/g
  Injected dose per gram, Intestine: 0.26 % ID/g
  Injected dose per gram, Kidney: 2.14 % ID/g
  Injected dose per gram, Lung: 0.38 % ID/g
  Injected dose per gram, Muscle: 0.45 % ID/g
  Injected dose per gram, Tail: 1.06 % ID/g
SK-RC-52.hFAP tumors; 24 h
  Tumor to organs ratio, Blood: 284.8
  Tumor to organs ratio, Heart: 269.1
  Tumor to organs ratio, Intestine: 243.1
  Tumor to organs ratio, Kidney: 17.2
  Tumor to organs ratio, Liver: 43.9
  Tumor to organs ratio, Lung: 196.9
  Tumor to organs ratio, Muscle: 159.9
  Tumor to organs ratio, Spleen: 384.4
  Tumor to organs ratio, Tail: 65.3
SK-RC-52.hFAP tumors; 24 h post injection
  Injected dose per gram, Blood: 0.07 % ID/g
  Injected dose per gram, Heart: 0.08 % ID/g
  Injected dose per gram, Intestine: 0.10 % ID/g
  Injected dose per gram, Kidney: 1.16 % ID/g
  Injected dose per gram, Liver: 0.46 % ID/g
  Injected dose per gram, Lung: 0.10 % ID/g
  Injected dose per gram, Muscle: 0.18 % ID/g
  Injected dose per gram, Spleen: 0.16 % ID/g
  Injected dose per gram, Tail: 0.31 % ID/g
  Injected dose per gram, Tumor: 19.78 % ID/g
SK-RC-52.hFAP tumors; 48 h
  Tumor to organs ratio, Blood: 1925.8
  Tumor to organs ratio, Heart: 559.6
  Tumor to organs ratio, Intestine: 282.6
  Tumor to organs ratio, Kidney: 21.4
  Tumor to organs ratio, Liver: 56.2
  Tumor to organs ratio, Lung: 299.5
  Tumor to organs ratio, Muscle: 1095.4
  Tumor to organs ratio, Spleen: 244.8
  Tumor to organs ratio, Tail: 136.9
SK-RC-52.hFAP tumors; 48 h post injection
  Injected dose per gram, Blood: 0.01 % ID/g
  Injected dose per gram, Heart: 0.03 % ID/g
  Injected dose per gram, Intestine: 0.06 % ID/g
  Injected dose per gram, Kidney: 0.78 % ID/g
  Injected dose per gram, Liver: 0.31 % ID/g
  Injected dose per gram, Lung: 0.06 % ID/g
  Injected dose per gram, Muscle: 0.04 % ID/g
  Injected dose per gram, Spleen: 0.10 % ID/g
  Injected dose per gram, Tail: 0.14 % ID/g
  Injected dose per gram, Tumor: 16.64 % ID/g
SK-RC-52.hFAP tumors; 72 h
  Tumor to organs ratio, Blood: 7913.2
  Tumor to organs ratio, Heart: 344.2
  Tumor to organs ratio, Intestine: 498.0
  Tumor to organs ratio, Kidney: 24.8
  Tumor to organs ratio, Liver: 1294.6
  Tumor to organs ratio, Lung: 477.1
  Tumor to organs ratio, Muscle: 536.6
  Tumor to organs ratio, Spleen: 92.1
  Tumor to organs ratio, Tail: 108.9
SK-RC-52.hFAP tumors; 72 h post injection
  Injected dose per gram, Blood: 0.01 % ID/g
  Injected dose per gram, Heart: 0.07 % ID/g
  Injected dose per gram, Intestine: 0.07 % ID/g
  Injected dose per gram, Kidney: 0.83 % ID/g
  Injected dose per gram, Liver: 0.34 % ID/g
  Injected dose per gram, Lung: 0.11 % ID/g
  Injected dose per gram, Muscle: 0.04 % ID/g
  Injected dose per gram, Spleen: 0.24 % ID/g
  Injected dose per gram, Tail: 0.19 % ID/g
  Injected dose per gram, Tumor: 20.19 % ID/g
SK-RC-52.hFAP tumors; 96 h
  Tumor to organs ratio, Blood: 3504
  Tumor to organs ratio, Heart: 492
  Tumor to organs ratio, Intestine: 763
  Tumor to organs ratio, Kidney: 22
  Tumor to organs ratio, Liver: 41
  Tumor to organs ratio, Lung: 344
  Tumor to organs ratio, Muscle: 514
  Tumor to organs ratio, Spleen: 69
  Tumor to organs ratio, Tail: 98
SK-RC-52.hFAP tumors; 96 h post injection
  Injected dose per gram, Blood: 0.00 % ID/g
  Injected dose per gram, Heart: 0.03 % ID/g
  Injected dose per gram, Intestine: 0.02 % ID/g
  Injected dose per gram, Kidney: 0.73 % ID/g
  Injected dose per gram, Liver: 0.40 % ID/g
  Injected dose per gram, Lung: 0.06 % ID/g
  Injected dose per gram, Muscle: 0.03 % ID/g
  Injected dose per gram, Spleen: 0.24 % ID/g
  Injected dose per gram, Tail: 0.17 % ID/g
  Injected dose per gram, Tumor: 16.26 % ID/g
SK-RC-52.hFAP tumors; 6 h post injection, 360 min
  Injected dose per gram, Liver: 0.65 % ID/g
  Injected dose per gram, Spleen: 0.30 % ID/g
  Injected dose per gram, Tumor: 48.96 % ID/g
SK-RC-52.hFAP tumors; [2]
  Injected dose per gram, Liver: ~ 0.7 % ID/g
  Injected dose per gram, Spleen: ~ 0.3 % ID/g
  Injected dose per gram, Tumor: ~ 49 % ID/g
SK-RC-52.hFAP tumors
  tumor uptake / biodistribution profile, in words: best biodistribution profile
